Measured values from patent publication US11117900B2 (Vertex Pharmaceuticals Incorporated, priority 2012, dated 2021).

system: HCT116 colorectal cancer cells; assay: Cisplatin sensitization assay (96 h MTS cell viability); assay type: cell-based; details: Cisplatin sensitization value;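 note: compound concentration needed to lower the IC50 of Cisplatin alone by a set fold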
Method in brief: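 The MTS viability read, after 1 h with reagent, followed 96 h of co-treatment at 37° C. in 5% CO2. Both compound and cisplatin were titrated 2-fold from a 10 μM top final concentration in a complete concentration matrix on HCT116 cells. Scores +++/++/+ reflect cisplatin sensitization value ranges.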

Row | SMILES | Cisplatin Sensitization Assay
1 | Nc1nn2cc(Cl)cnc2c1C(=O)Nc1cnccc1N1CCC(N2CCn3ccnc3C2)CC1 [I-N-102, 2-amino-6-chloro-N-(4-(4-(5,6-dihydroimidazo[1,2-a]pyrazin-7(8H)-yl)piperidin-1-yl)pyridin-3-yl)pyrazolo[1,5-a]pyrimidine-3-carboxamide] | ++ (Compounds with a Cisplatin sensitization value >0.02 μM but <0.2 μM are marked with “++.”)
2 | Nc1nn2cc(Cl)cnc2c1C(=O)Nc1cnccc1N1CCC(N2CC[C@H](F)C2)CC1 [I-N-103, (S)-2-amino-6-chloro-N-(4-(4-(3-fluoropyrrolidin-1-yl)piperidin-1-yl)pyridin-3-yl)pyrazolo[1,5-a]pyrimidine-3-carboxamide] | +++ (Compounds with a Cisplatin sensitization value of <0.02 μM are marked with “+++.”)
3 | Nc1nn2cc(Cl)cnc2c1C(=O)Nc1cnccc1N1CCC(N2CCOCC2)CC1 [I-N-104, 2-amino-6-chloro-N-(4-(4-morpholinopiperidin-1-yl)pyridin-3-yl)pyrazolo[1,5-a]pyrimidine-3-carboxamide] | +++ (Compounds with a Cisplatin sensitization value of <0.02 μM are marked with “+++.”)
4 | Nc1nn2cc(Cl)cnc2c1C(=O)Nc1cnccc1N1CCC(N2CCCC2)CC1 [I-N-105, 2-amino-6-chloro-N-(4-(4-(pyrrolidin-1-yl)piperidin-1-yl)pyridin-3-yl)pyrazolo[1,5-a]pyrimidine-3-carboxamide] | +++ (Compounds with a Cisplatin sensitization value of <0.02 μM are marked with “+++.”)
5 | CN(C)C1CCN(C2CCN(c3ccncc3NC(=O)c3c(N)nn4cc(Cl)cnc34)CC2)C1 (stereo not shown) [I-N-106, 2-amino-6-chloro-N-(4-(4-(3-(dimethylamino)pyrrolidin-1-yl)piperidin-1-yl)pyridin-3-yl)pyrazolo[1,5-a]pyrimidine-3-carboxamide] | +++ (Compounds with a Cisplatin sensitization value of <0.02 μM are marked with “+++.”)
6 | COC1CN(C2CCN(c3ccncc3NC(=O)c3c(N)nn4cc(Cl)cnc34)CC2)C1 [I-N-107, 2-amino-6-chloro-N-(4-(4-(3-methoxyazetidin-1-yl)piperidin-1-yl)pyridin-3-yl)pyrazolo[1,5-a]pyrimidine-3-carboxamide] | +++ (Compounds with a Cisplatin sensitization value of <0.02 μM are marked with “+++.”)
7 | Nc1nn2cc(Cl)cnc2c1C(=O)Nc1cnccc1N1CCC(N2CC(F)(F)C2)CC1 [I-N-108, 2-amino-6-chloro-N-(4-(4-(3,3-difluoroazetidin-1-yl)piperidin-1-yl)pyridin-3-yl)pyrazolo[1,5-a]pyrimidine-3-carboxamide] | +++ (Compounds with a Cisplatin sensitization value of <0.02 μM are marked with “+++.”)
8 | Nc1nn2cc(Cl)cnc2c1C(=O)Nc1cnccc1N1CCC(N2CCC23COC3)CC1 [I-N-109, N-(4-(4-(6-oxa-1-azaspiro[3.3]heptan-1-yl)piperidin-1-yl)pyridin-3-yl)-2-amino-6-chloropyrazolo[1,5-a]pyrimidine-3-carboxamide] | +++ (Compounds with a Cisplatin sensitization value of <0.02 μM are marked with “+++.”)
9 | CN1CCN(c2c(NC(=O)c3c(N)nn4cc(F)cnc34)cncc2C(F)F)CC1 [I-N-111, 2-amino-N-(5-(difluoromethyl)-4-(4-methylpiperazin-1-yl)pyridin-3-yl)-6-fluoropyrazolo[1,5-a]pyrimidine-3-carboxamide] | ++ (Compounds with a Cisplatin sensitization value >0.02 μM but <0.2 μM are marked with “++.”)
10 | Nc1nn2cc(F)cnc2c1C(=O)Nc1cnccc1N1CCN(C2COC2)C2CC21 (stereo not shown) [I-N-112, 2-amino-6-fluoro-N-(4-(5-(oxetan-3-yl)-2,5-diazabicyclo[4.1.0]heptan-2-yl)pyridin-3-yl)pyrazolo[1,5-a]pyrimidine-3-carboxamide] | + (Compounds with a Cisplatin sensitization value >0.2 μM but <5 μM are marked with “+.”)
